What all share (type): in vivo
The subject of assay [1] is barnyardgrass (Echinochloa crus-galli). Description: Test B1 flooded paddy test, barnyardgrass. As to conditions: 250 g ai/ha, Flood, applied to paddy water, 2-leaf stage, visually evaluated after 10 to 14 days. From the text:
A dash (-) response means no test result.

The subject of assay [2] is blackgrass (Alopecurus myosuroides). Description: Test A1 postemergence, blackgrass. As to conditions: 0 to 100 scale (0 no effect, 100 complete control); for Blackgrass plant response rating: 31 g ai/ha, postemergence; for Plant response rating, Blackgrass: Postemergence, 125 g ai/ha, 10 days. The procedure, abridged: (§1)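 Plants grown in pots of loam/sand mix; preemergence = soil-directed spray on seeded pots, postemergence = spray at 1–2 leaves, height 2–10 cm; test chemicals formulated in non-phytotoxic solvent with surfactant.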

The subject of assay [3] is Foxtail, Giant (giant foxtail, Setaria faberi). Put plainly: Test A1 postemergence, Foxtail, Giant. The note with it: 0 to 100 scale (0 no effect, 100 complete control); for Foxtail, Giant plant response rating: 31 g ai/ha, postemergence; for Plant response rating, Foxtail, Giant: Postemergence, 125 g ai/ha, 10 days. The procedure, abridged: as §1
Assay [4] deals with blackgrass (Alopecurus myosuroides). Put plainly: Test A1 preemergence, blackgrass. The procedure, abridged: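 Seeds were first planted into a blend of loam soil and sand and given a preemergence directed soil spray. In parallel, pots of the same soil were sown for postemergence application once plants reached 2 to 10 cm and the one- to two-leaf stage. Both used surfactant-containing non-phytotoxic solvent formulations.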

For assay [5], the system named is horseweed (Erigeron canadensis). Description: Test A1 postemergence, horseweed. The note with it: 0 to 100 scale (0 no effect, 100 complete control); for Horseweed plant response rating: 31 g ai/ha, postemergence; for Plant response rating, Horseweed: Postemergence, 125 g ai/ha, 10 days. Put shortly:
as §1

Where [6] appears, read: 31 g ai/ha, 0 to 100 scale (0 no effect, 100 complete control).
The mark [7] stands for this setting: 125 g ai/ha, 0 to 100 scale, 0 no effect, 100 complete control.

With `COC1CCC2(CC1)CCN(c1cc(NS(=O)(=O)C(F)(F)F)c(C)cc1C)C2=O` (stereo not drawn) [Compound 398], in assay [1], the “Plant response rating, Barnyardgrass (0 to 100 scale, 0 is no effect, 100 is complete control)” value worked out at 85. In addition, in assay [2], the “Blackgrass plant response rating” value was 0 and the “Plant response rating, Blackgrass” value came out at 30. In assay [3], the “Foxtail, Giant plant response rating” value is 20 and the “Plant response rating, Foxtail, Giant” value was 60. In addition, the “Plant response rating, Blackgrass” value in assay [4] (setting [6]) stood at 60. The “Plant response rating, Blackgrass” value in assay [4] (setting [7]) amounted to 90. In assay [5], the “Horseweed plant response rating” value turned out to be 20 and the “Plant response rating, Horseweed” value is recorded as 50.

Take `Cc1cc(C)c(N2CCC3(CCC(C(F)(F)F)CC3)C2=O)cc1NS(=O)(=O)C(F)(F)F` (stereo not drawn) [Compound 400]: the “Plant response rating, Barnyardgrass (0 to 100 scale, 0 is no effect, 100 is complete control)” value in assay [1] came out at 20. Further, in assay [2], the “Blackgrass plant response rating” value came to 0 and the “Plant response rating, Blackgrass” value amounted to 30. Also, in assay [3], the “Foxtail, Giant plant response rating” value came out at 0 and the “Plant response rating, Foxtail, Giant” value is 0. Besides, in assay [4] (setting [6]), the “Plant response rating, Blackgrass” value is given as 20. In assay [4] (setting [7]), the “Plant response rating, Blackgrass” value is recorded as 80. In assay [5], the “Horseweed plant response rating” value is 30 and the “Plant response rating, Horseweed” value is recorded as 80.

Consider `Cc1cc(C)c(N(COC(=O)C(C)(C)C)S(=O)(=O)C(F)(F)F)cc1N1CCC2(CCC(C)CC2)C1=O` (stereo not drawn) [Compound 401], for which the “Plant response rating, Barnyardgrass (0 to 100 scale, 0 is no effect, 100 is complete control)” value in assay [1] worked out at 98. In assay [2], the “Blackgrass plant response rating” value was 0 and the “Plant response rating, Blackgrass” value stood at 30. Also, in assay [3], the “Foxtail, Giant plant response rating” value is recorded as 0 and the “Plant response rating, Foxtail, Giant” value is given as 60. For the same molecule, the “Plant response rating, Blackgrass” value in assay [4] (setting [6]) was found to be 0. In addition, the “Plant response rating, Blackgrass” value in assay [4] (setting [7]) worked out at 0. Moreover, in assay [5], the “Horseweed plant response rating” value stood at 0 and the “Plant response rating, Horseweed” value worked out at 0.

Turning to `Cc1cc(C)c(N2CCC3(CCC(C)CC3)C2=O)cc1NS(=O)(=O)C(F)(F)F` (stereo not drawn) [Compound 402], the “Plant response rating, Barnyardgrass (0 to 100 scale, 0 is no effect, 100 is complete control)” value in assay [1] is 0. Moreover, in assay [2], the “Blackgrass plant response rating” value is listed as 0 and the “Plant response rating, Blackgrass” value turned out to be 0. Moreover, in assay [3], the “Foxtail, Giant plant response rating” value is 0 and the “Plant response rating, Foxtail, Giant” value worked out at 20. Besides, in assay [4] (setting [6]), the “Plant response rating, Blackgrass” value is on record as 70. Moreover, the “Plant response rating, Blackgrass” value in assay [4] (setting [7]) was 80. In addition, in assay [5], the “Horseweed plant response rating” value was found to be 20 and the “Plant response rating, Horseweed” value is listed as 50.

In the case of `Cc1cc(C)c(N2Cc3cccc(C)c3C2=O)cc1NS(=O)(=O)Cl` [Compound 408], the “Plant response rating, Barnyardgrass (0 to 100 scale, 0 is no effect, 100 is complete control)” value in assay [1] came to 98. In addition, in assay [2], the “Blackgrass plant response rating” value was found to be 80 and the “Plant response rating, Blackgrass” value amounted to 90. Moreover, in assay [3], the “Foxtail, Giant plant response rating” value amounted to 90 and the “Plant response rating, Foxtail, Giant” value was 90. Moreover, the “Plant response rating, Blackgrass” value in assay [4] (setting [6]) worked out at 90. In assay [4] (setting [7]), the “Plant response rating, Blackgrass” value was found to be 100. For the same molecule, in assay [5], the “Horseweed plant response rating” value was 20 and the “Plant response rating, Horseweed” value was found to be 70.

Source of the values: patent publication US20230278972A1, “SUBSTITUTED HALOALKYL SULFONANILIDE HERBICIDES” (FMC Corporation, priority 2020, published 2023).
